The source of these data is patent publication US12054744B2, “NK cells exhibiting an adaptive phenotype and methods for preparing and for using” (Regents of the University of Minnesota, priority 2015, dated 2024).

What all share (assay type): cell-based, human
The subject of test [1] is cord blood-derived CD56^+ NK cells. In words: Cord blood-derived NK cell culture on OP9 native or OP9-DL1 stromal cells with IL-15 with or without IL-21; FACS for CD57 and SYK. Here is the method:
OP9 stromal cells transduced with either the empty MigR1 retroviral vector (OP9 native) or with the MigR1 retroviral vector containing the Delta-like 1 gene (OP9-DL1) (Schmitt et al. Immunity. 2002; 17(6):749-756) were cultured in MEMα media+20% fetal bovine serum (FBS) at a concentration of 4×10^5 cells/well in 24-well plates for two days to allow for cell adherence. Plates were then irradiated with 2,000 cGy to stop cell proliferation.
(§1) Mononuclear cells were isolated from whole cord blood by density gradient centrifugation. T cells and B cells were depleted by positive magnetic selection using anti-CD3 and anti-CD19 microbeads, respectively. CD3/CD19-depleted cells were then added to irradiated OP9 cells at a concentration of 5×10^5 cells/well and cultured for 14 days in RPMI media+10% FBS supplemented with either 1 ng/mL IL-15 or 10 ng/mL IL-15 with or without 50 ng/mL IL-21.
(§2) Cord blood-derived NK cells were analyzed before culture and after 7 and 14 days of culture by fluorescence activated cell sorting (FACS) using the following extracellular and intracellular antibodies: BV785-conjugated anti-CD3 (BioLegend, San Diego, CA), PE-Cy7-conjugated anti-CD56 (BioLegend, San Diego, CA), BV605-conjugated anti-CD57 (BioLegend, San Diego, CA), APC-conjugated SYK (eBioscience, San Diego, CA), and PE-conjugated anti-PLZF (BD Biosciences, San Jose, CA).
The Notch signaling pathway plays an essential role in effector CD8^+ T cell differentiation and controls the acquisition of effector function (Backer et al. Nat Immunol. 2014; 15(12):1143-1151). To determine if Notch signaling could play a role in driving the differentiation and expansion of terminally differentiated and adaptive NK cell subsets, CD3/CD19-depleted mononuclear cells were cultured from cord blood on native OP9 stromal cells or OP9 stromal cells stably transduced with the Notch ligand DL1 in the presence of low-dose (1 ng/mL) IL-15 or high-dose (10 ng/mL) IL-15 with or without IL-21 (50 ng/mL). Cells were harvested at days 7 and 14, and CD56^+ NK cells were analyzed by fluorescence activated cell sorting (FACS) for expression of CD57 and SYK. Prior to culture, an average of 2.13%±0.44 of CD56^+ NK cells expressed CD57.

Test [2] concerns PLZF expression in cord blood-derived CD56^dim NK cells. In words: Intracellular PLZF staining of cord blood-derived CD56^dim NK cells after 14 days in culture. The note with it: high-dose IL-15, IL-21 where added. The method, then:
FIG. 6A. FACS plots of intracellular PLZF expression in cord blood-derived CD56^dim NK cells from a representative donor after 14 days in the indicated culture conditions. FIG. 6B. Cumulative data showing the percentage of PLZF″ NK cells after 14 days in each culture condition from 6 donors. Two independent experiments were performed. Error bars represent SEM.
as §1, §2
Transcriptional silencing of the transcription factor promyelocytic leukemia zinc finger (PLZF) is a hallmark of adaptive NK cells that expand in response to CMV infection (Schlums et al. Immunity. 2015; 42(3):443-456). Intracellular staining for PLZF was performed in NK cells from freshly isolated mononuclear cells and from cells that were cultured for 14 days in vitro. Freshly isolated CD56^dimSYK^− NK cells from cord blood were predominantly PLZF-positive (99.3%±0.10). […] Therefore, IL-21 drives down PLZF expression in CD56^dimSYK^− NK cells, causing these cells to acquire adaptive characteristics (FIG. 6).

Test [3] deals with NK cells from CMV seropositive donors. In words: Culture of CD3/CD19-depleted PBMCs with IL-15; FACS for CD45RA/CD45RO. The note with it: autologous monocytes, 10 ng/mL IL-15, 7 days. The method, then: CD3/CD19-depleted peripheral blood mononuclear cells from typed healthy CMV seronegative and seropositive donors were cultured with 10 ng/mL IL-15. After 7 days, cells were harvested and analyzed by FACS. Shown are representative phenotypes from one CMV seropositive and one CMV seronegative donor both before and after culture (top). Cumulative data showing the percentages of CD3^−CD56^+CD45RA^−CD45RO^+ NK cells from five CMV seronegative and eight CMV seropositive donors pre- and post-culture are shown (bottom). Data are representative of two independent experiments. Paired student's t-tests were used to determine statistical significance within groups, and unpaired student's t-tests were used to determine statistical significance between groups (CMV seropositive and CMV seronegative). *p≤0.05, **p≤0.01, ***p≤0.001.
CD3/CD19-depleted peripheral blood mononuclear cells from typed healthy CMV seronegative and seropositive donors were cultured with 10 ng/mL IL-15. Percentages of CD3^−CD56^+CD45RA^−CD45RO^+ NK cells from CMV seronegative and CMV seropositive donors pre- and post-culture were measured using FACS.

Where [4] appears, read: OP9-DL1, high-dose (10 ng/mL) IL-15, day 7.
Where [5] appears, read: OP9-DL1, high-dose (10 ng/mL) IL-15, day 14.
[6] abbreviates: OP9-DL1, low-dose (1 ng/mL) IL-15, day 7.
The mark [7] stands for this setting: OP9-DL1, low-dose (1 ng/mL) IL-15, day 14.
Setting [8] is: OP9 native, high-dose (10 ng/mL) IL-15, day 7.
The mark [9] stands for this setting: OP9 native, high-dose (10 ng/mL) IL-15, day 14.
The mark [10] stands for this setting: OP9 native, low-dose (1 ng/mL) IL-15, day 7.
[11] abbreviates: OP9 native, low-dose (1 ng/mL) IL-15, day 14.

Several values for one entry are separate records, joined by “and”; a condition that tells them apart may be missing. Identical values can stand only once.

Regarding “IL-15: cytokine in culture medium, low-dose 1 ng/mL or high-dose 10 ng/mL”, the “percentage of CD56^+ NK cells expressing CD57” value in test [1] (setting [4]) is recorded as 1.30%±0.31; in test [1] (setting [5]), 0.86%±0.44; in test [1] (setting [6]), 0.91%±0.34; in test [1] (setting [7]), 0.93%±0.40; in test [1] (setting [8]), 0.70%±0.23; in test [1] (setting [9]), 0.22%±0.10. Further, the figures for the “percentage of CD56^+ NK cells expressing CD57” value in test [1] (setting [10]) and in test [1] (setting [11]) were 0.59%±0.19 and 0.24%±0.11, respectively. Also, the “percentage of CD56^+ NK cells lacking SYK” value is 0.34%±0.04 and 0.67%±0.10 in test [1] (setting [4]); 0.43%±0.15 in test [1] (setting [5]); 0.25%±0.06 in test [1] (setting [6]); 0.17%±0.08 in test [1] (setting [7]); 0.21%±0.05 in test [1] (setting [8]); 0.43%±0.15 in test [1] (setting [9]). Further, the figures for the “percentage of CD56^+ NK cells lacking SYK” value in test [1] (setting [10]) and in test [1] (setting [11]) were 0.18%±0.06 and 0.07%±0.03, respectively. Further, the “decrease in PLZF expression (percentage of PLZF-negative NK cells)” value in test [2] (CD56^dimCD57^−SYK^+ NK cells) is recorded as 9.93%±0.75; in test [2] (CD56^dimCD57^−SYK^− NK cells), 7.05%±1.31. Further, the “CD45RA/CD45RO phenotype of NK cells” value in test [3] is reported as “skew towards a CD45RA^−CD45RO^+ phenotype”.
